Data set [1] can be described thus: Stability measured on HPLC (Comparison Example 1). The format is physicochemical. To be noted: for Stability (in words): comment on Table 4. The protocol:
A Comparison of the Stability of 4-methyl-2-thiazolylsulfonyl chloride with that of the Compound Prepared in Examples 8 and 9
The solution prepared in Reference Example 1 was concentrated under reduced pressure to give 4-methyl-2-thiazolylsulfonyl chloride. The stability of this compound and the compounds prepared in Examples 8 and 9 was measured on HPLC. The conditions of HPLC were as follows.
Column: YMC-Pack ODS-AM-302(4.6 mm*150 mm)
Eluting solvent: MeCN/3 mM tetra-n-butylammonium phosphate=40/60

Data set [2] has as its target T1, mouse EP1 (Mus musculus, UniProt P35375).
T1 sequence (P35375 1-405): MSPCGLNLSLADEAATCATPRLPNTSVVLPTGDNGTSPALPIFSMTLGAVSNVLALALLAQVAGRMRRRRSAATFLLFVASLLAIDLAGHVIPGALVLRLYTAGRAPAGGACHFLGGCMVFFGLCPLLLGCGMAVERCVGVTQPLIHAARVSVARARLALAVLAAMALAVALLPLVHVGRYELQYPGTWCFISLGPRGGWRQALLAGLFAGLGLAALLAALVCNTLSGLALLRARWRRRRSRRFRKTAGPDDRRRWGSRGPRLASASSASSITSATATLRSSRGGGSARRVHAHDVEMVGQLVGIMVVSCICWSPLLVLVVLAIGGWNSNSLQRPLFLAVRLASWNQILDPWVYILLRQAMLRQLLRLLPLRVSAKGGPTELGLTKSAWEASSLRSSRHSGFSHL
Briefly: Receptor antagonism using cells expressing EP1 in the presence of BSA (intracellular calcium). It is filed as cell-based. The arrangement: expressed in transfected cells. As to conditions: inhibition of PGE2 (100 nM)-induced increase of intracellular calcium; assay buffer with 1% (w/v) BSA. The protocol: (ii) Experimental Measurement of the Activity of Receptor Antagonism Using Cells Expressing Prostanoid Receptor Subtype EP1 in the Presence of BSA (Bovine Serum Albumin)
The cells expressing mouse EP1 receptor were seeded at 1×10^4 cells/well in 96 well plates and cultured for 2 days with 10% FBS (fetal bovine serum)/minimum essential medium Eagle alpha modification (αMEM) in the incubator (37° C., 5% CO2). The cells in each well were rinsed with phosphate buffer (PBS(−)), and load buffer was added. After incubation for 1 hour, the load buffer was discarded. After the addition of the assay buffer to each well, the cells were incubated in a dark place at room temperature for 1 hour. After the addition of a compound of the present invention (10 μl) and PGE2 (10 μl) which were prepared with assay buffer, intracellular calcium concentration was measured with Fluorescence drug screening system (FDSS-4000, Hamamatsu Photonics). A pair of fluorescence intensities emitted 500 nm by an excitation wavelength of each 340 nm and 380 nm was measured.
The EP1 antagonist activity was estimated as percent inhibition of the increase of intracellular calcium concentration induced by PGE2 (100 nM).
Load buffer: 10% FBS/αMEM containing 5 μM of Fura 2/AM, 20 μM of indomethacin, 2.5 mM of probenecid
Assay buffer: Hank's balanced salt solution (HBSS) containing 1% (w/v) BSA, 2 μM of indomethacin, 2.5 mM of probenecid and 10 mM of HEPES-NaOH

Data set [3] deals with T1, mouse EP1. Briefly: Binding assay using expression cell of prostanoid receptor subtype (3H-PGE2 competition, membrane fraction). The arrangement: expressed in transfected cells; host or cells: CHO cells, membrane fraction. To be noted: competition of 3H-PGE2 (2.5 nM) binding, CHO cell membrane fraction. The protocol:
(i) Binding Assay Using Expression Cell of Prostanoid Receptor Subtype
The preparation of membrane fraction was carried out according to the method of Sugimoto et al. (J. Biol. Chem., 267, 6463-6466 (1992)), using expression CHO cell of prostanoid receptor subtype (mouse EP1, EP2, EP3α or EP4).
The standard assay mixture containing membrane fraction (0.5 mg/ml) and ^3H-PGE2 in a final volume of 200 μl was incubated for 1 hour at room temperature. The reaction was terminated by addition of ice-cold buffer (3 ml). The mixture was rapidly filtered through a glass filter (GF/B). The radioactivity associated with the filter was measured by liquid scintillation counting.
Kd and Bmax values were determined from Scatchard plots (Ann. N.Y. Acad. Sci., 51, 660 (1949)). Non-specific binding was calculated as the binding in the presence of an excess (2.5 μM) of unlabeled PGE2. In the experiment for competition of specific ^3H-PGE2 binding by the compound of the present invention, ^3H-PGE2 (2.5 nM) and the compound of the present invention were added. The following buffer was used in all reaction.
Buffer: potassium phosphate (pH 6.0, 10 mM), EDTA (1 mM), MgCl2 (10 mM) and NaCl (0.1 M).
The dissociation constant Ki (μM) of each compound was calculated by the following equation. Ki=IC50/(1+([C]/Kd))
wherein [C] is concentration of ^3H-PGE2 used in the reaction

In a further data set the test system is EP1 receptor. Kind of data set: Inhibition of sulprostone-induced increase of intravesical pressure of bladder in rats. The format is in vivo, rat. To be noted: female Wistar rats, 1 mg/kg intraduodenal, 40 minutes after administration. The text has this: (iii) Experiment to Assess the Inhibition of Sulprostone-Induced Increase of Intravesical Pressure of Bladder in Rats.
Female rats (Wistar) were anesthetized by urethane and their both ureters were ligated and cut off at the kidney side. The urinary bladder was incised its top and catheter was inserted. The other end of catheter was connected to the pressure transducer and the infusion pump. Repeated micturition reflex, which was induced by the continuous infusion of citrate buffer (pH 3.5) into the bladder, was recorded. The increase of micturition pressure was elicited by the subcutaneous injection of diclofenac (5 mg/kg) and sulprostone (300 μg/kg). Since such an increasing effect was not observed by the treatment of EP3 agonist, it was considered that this increase was caused by the activation of EP1 receptor. The inhibitory effects of the compound of the present invention on this increase of intravesical pressure were measured for 60 minutes after the intraduodenal administration (2 ml/kg).

pIC50, pKi: −log10 of the molar value. Counter-ions that a name gives are not always drawn.

As for `Cc1csc(S(=O)(=O)Cl)n1` [4-methyl-2-thiazolylsulfonyl chloride, 4-methyl-2-thiazolylsulfonylchloride], the “Residual Rate (%)” value amounted to 102.0% in data set [1] (1 °C, 24 hour); 96.3% in data set [1] (1 °C, 48 hour); 98.6% in data set [1] (1 °C, 72 hour); 71.4% in data set [1] (20 °C, 24 hour); 20.6% in data set [1] (20 °C, 48 hour); 2.0% in data set [1] (20 °C, 66 hour). The “Residual Rate (%)” value in data set [1] (40 °C, 16 hour) is listed as 60.9%; in data set [1] (40 °C, 24 hour) it was 7.6%. Also, the “Stability (in words)” value in data set [1] is given as “stable at low temperature, but when subjected to room temperature or higher, it is hard to assure the stability”.

Usually pIC50 stands for −log10 of the IC50, conventionally taken in molar units. Usually pKi stands for the negative decadic logarithm of the Ki, by convention in mol/L. Lower therefore signals a high Ki. Consider `Cc1ccc(S(=O)(=O)N(CC(C)C)c2cc(C)c(C)cc2OCc2ccc(C(=O)O)cc2)o1` [Example 2 (6), 4-[2-[N-isobutyl-N-(5-methyl-2-furylsulfonyl)amino]-4,5-dimethylphenoxymethyl]benzoic acid], for which the pIC50 on mouse EP1 [2] is 8.14. Besides, the pKi at mouse EP1 [3] is 9.49.

With `Cc1ccc(S(=O)(=O)N(CC(C)C)c2cc3c(cc2OCc2ccc(/C=C/C(=O)O)cc2)CCC3)o1` [Example 2 (32), 4-[6-[N-isobutyl-N-(5-methyl-2-furylsulfonyl)amino]indan-5-yloxymethyl]cinnamic acid], the pIC50 at mouse EP1 [2] was 7.68. For the same compound, at mouse EP1 [3], the pKi was 8.10.

Turning to `Cc1ccc(S(=O)(=O)N(CC(C)C)c2cc3c(cc2OCc2ccc(C(=O)O)cc2C)CCC3)o1` [Example 2 (33), 3-methyl-4-[6-[N-isobutyl-N-(5-methyl-2-furylsulfonyl)amino]indan-5-yloxymethyl]benzoic acid], in the data set with EP1 receptor, the “Inhibition (%) (40 minutes later)” value was 79 ± 11%. In addition, the pIC50 at mouse EP1 [2] was 8.39. In addition, the pKi at mouse EP1 [3] was 8.18.

As for `Cc1csc(S(=O)(=O)N(CC(C)C)c2ccc(C(F)(F)F)cc2OCc2ccc(/C=C/C(=O)O)cc2)n1` [Example 2 (41), 4-[2-[N-isobutyl-N-(4-methyl-2-thiazolylsulfonyl)amino]-5-trifluoromethylphenoxymethyl]cinnamic acid], the pIC50 on mouse EP1 [2] was 7.60. At mouse EP1 [3], the pKi is 8.82.

Turning to `Cc1cc(OCc2ccc(C(=O)O)cc2C)c(N(CC(C)C)S(=O)(=O)c2ccccn2)cc1C` [Example 2 (87), 3-methyl-4-[2-[N-isobutyl-N-(2-pyridylsulfonyl)amino]-4,5-dimethylphenoxymethyl]benzoic acid], on mouse EP1 [2], the pIC50 was 8.14. Besides, the pKi on mouse EP1 [3] was 8.85.

For the compound `Cc1cc(OCc2ccc(/C=C/C(=O)O)cc2C)c(N(CC(C)C)S(=O)(=O)c2cccnc2)cc1C` [Example 2 (94), 3-methyl-4-[2-[N-isobutyl-N-(3-pyridylsulfonyl)amino]-4,5-dimethylphenoxymethyl]cinnamic acid], on mouse EP1 [2], the pIC50 was 8.04. At mouse EP1 [3], the pKi was 8.41.

As for `Cc1ccc(S(=O)(=O)N(CC(C)C)c2cc(C)c(C)cc2OCc2ccc(C(=O)O)cc2C)o1` [Example 2, 3-methyl-4-[2-[N-isobutyl-N-(5-methyl-2-furylsulfonyl)amino]-4,5-dimethylphenoxymethyl]benzoic acid], the “Inhibition (%) (40 minutes later)” value with EP1 receptor was 68 ± 1%. Also, the pIC50 at mouse EP1 [2] is 8.11. Moreover, the pKi on mouse EP1 [3] was 8.38.

`Cc1csc(S(=O)(=O)N(c2cc(C)c(Cl)cc2OCc2ccc(-c3nnn[nH]3)cc2C)C(C)C)n1` [Example 3 (11), N-[4-chloro-5-methyl-2-[2-methyl-4-(5-tetrazolyl)phenylmethyloxy]phenyl]-N-isopropyl-(4-methyl-2-thiazolyl)sulfonylamide]: the pIC50 at mouse EP1 [2] was 8.31. This compound gave a pKi at mouse EP1 [3] of 8.64.

As to `Cc1cc(OCc2ccc(-c3nnn[nH]3)cc2Cl)c(N(C(C)C)S(=O)(=O)c2cccnc2)cc1C` [Example 3 (30), N-[4,5-dimethyl-2-[2-chloro-4-(5-tetrazolyl)phenylmethyloxy]phenyl]-N-isopropyl-3-pyridylsulfonylamide], at mouse EP1 [2], the pIC50 is 8.43. The compound further showed a pKi on mouse EP1 [3] of 9.10.

Consider `Cc1csc(S(=O)(=O)N(c2cc(C)c(C)cc2OCc2ccc(-c3noc(=O)[nH]3)cc2)C(C)C)n1` [Example 4 (14), N-[4,5-dimethyl-2-[4-(5-oxo-1,2,4-oxadiazol-3-yl)phenylmethyloxy]phenyl]-N-isopropyl-(4-methyl-2-thiazolyl)sulfonylamide], for which the pIC50 on mouse EP1 [2] is 8.15. On mouse EP1 [3], this compound had a pKi of 9.10.

As for `Cc1csc(S(=O)(=O)On2nnc3ccccc32)n1` [Example 8, 1-(4-methylthiazol-2-ylsulfonyloxy)-1,2,3-benzotriazole], in data set [1] (40 °C, 24 hour), the “Residual Rate (%)” value is reported as 99.8%. Further, the “Stability (in words)” value in data set [1] is listed as “stable even at high temperature”.

As to `Cc1csc(S(=O)(=O)n2cc[n+](C)c2)n1` [Example 9, 1-(4-methylthiazol-2-ylsulfonyl)-3-methylimidazol-1-onium hydrogen chloride salt], in data set [1] (40 °C, 24 hour), the “Residual Rate (%)” value amounted to 99.6%. Also, the “Stability (in words)” value in data set [1] is listed as “stable even at high temperature”.

In the case of `Cc1ccc(N(CC(C)C)S(=O)(=O)c2ccco2)c(OCc2ccc(C(=O)O)cc2)c1` [Example 18 (93), reference compound], at mouse EP1 [2], the pIC50 was 6.70. The compound also showed a pKi on mouse EP1 [3] of 9.10.

As to `Cc1ccc(OCc2ccc(C(=O)O)cc2)c(N(CC(C)C)S(=O)(=O)c2ccco2)c1` [Example 18 (113), reference compound], the pIC50 on mouse EP1 [2] was 6.33. The compound further had a pKi on mouse EP1 [3] of 8.26.

As for `CC(C)CN(c1ccc(Cl)cc1OCc1ccc(C(=O)O)cc1)S(=O)(=O)c1ccco1` [Example 18 (121), reference compound], the pIC50 on mouse EP1 [2] is 6.59. This compound gave a pKi on mouse EP1 [3] of 9.00.

`CC(C)CN(c1cc(Cl)ccc1OCc1ccc(C(=O)O)cc1)S(=O)(=O)c1ccco1` [Example 18 (125), reference compound]: the pIC50 on mouse EP1 [2] is 5.87. Besides, on mouse EP1 [3], the pKi was 8.89.
